Results on one compound are retold here after PubChem BioAssay (NCI).

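Cells were grown in 96-well plates and exposed to each compound for 48 hours at five concentrations; endpoints were interpolated linearly between bracketing concentrations, or set to the highest concentration if not reached. Here, GI50 denotes the concentration required for 50% inhibition of growth. TGI marks complete inhibition of growth.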

What all share (test): inhibition of tumour cell growth, NCI panel, 48 h
The subject of assay [1] is MCF7 breast.
Assay [2] concerns COLO 205 colon.
In assay [3] the test system is NCI-H522 lung.
The test system of assay [4] is SR leukemia.
The test system of assay [5] is OVCAR-8 ovarian.
The test system of assay [6] is SNB-75 CNS.
Assay [7] relates to SK-MEL-5 melanoma.
The subject of assay [8] is RPMI-8226 leukemia.
For assay [9], the system named is HOP-92 NSCLC.
Assay [10] has as its system IGROV1 ovarian.

For the compound `CO/N=C1/NC(=O)/C(=C/c2ccc3ncccc3c2)S1`, the GI50 is 4.45 µM in assay [1]; more than 25 µM in [2]; 12.3 µM in assay [3]; 14.7 µM in assay [4]; more than 22.6 µM in assay [5]; 4.07 µM in assay [6]. Moreover, the GI50 in assay [7] is more than 14.1 µM; in [8], more than 25 µM; in assay [9], 4.48 µM; in [10] it was 4.78 µM. The TGI in assay [1], in assay [2], in assay [3], in assay [4], in [5] and in assay [6] was more than 25 µM in each case. For the same compound, the TGI was more than 25 µM in assay [7], more than 25 µM in assay [8], more than 25 µM in assay [9] and 15.9 µM in [10].
